One molecule from publication PMC13144739, “Global analysis of cancer cell responses to USP9X inhibition” (The EMBO Journal, 2026) can be followed below.

Broadly, the inhibition is the drop in the measured response relative to a control, in per cent. As a reminder, the Papp A→B is how fast a substance crosses the layer from the apical side. A low value points to poor permeation. For orientation: Papp B→A means the apparent permeability from the basolateral to the apical side of a cell layer. What is called pIC50 is the IC50 on a negative log10 scale, so that one unit is a factor of ten.

pIC50: −log10 of the molar value. Bounds are passed on as bounds.

One data set has as its system SK-MEL-2 cells. In words: NCI-60 cancer cell panel, SK-MEL-2. The note with it: 10 µM, 3 days. Type of data set: cell-based, human. The method, then:
(§1) Inhibitors were tested at 10 µM. Data shown is the mean of two technical replicates and is shown relative to the no-drug control, and relative to the time zero number of cells.

For data set [1], the system named is UO-31 cells. In words: Colony formation assay, UO-31. Type of data set: cell-based, human. The note with it: 10 µM, 7–12 days. On the procedure:
Cells were seeded at low density (200–4000 cells per well) after initial optimisation in a six-well tissue culture-treated plate (Falcon). Twenty-four hours post seeding, media was replaced, and the inhibitor was added. Cells were left to grow into colonies between 7 and 12 days, depending on the cell line. For analysis, the media was removed, and the cells were fixed with 10% (w/v) formalin for 10 min. Colonies were stained with crystal violet (Sigma-Aldrich, 0.5% [w/v] in 20% [v/v] MeOH) for 10 min and washed thrice with distilled H2O. Plates were imaged using the ChemiDoc imaging system (Bio-Rad) and analysed using the ImageJ ColonyArea plugin as described previously (Guzmán et al, [2014]).

Data set [2] has as its system UO-31 cells. In words: IncuCyte live-cell imaging cell death (PI uptake), UO-31. Type of data set: cell-based, human. On the procedure: Cells were seeded at varying densities (1000–8000 cells per well) after initial optimisation in a 96-well tissue culture-treated plate (Thermo Fisher Scientific). Cells were incubated o/n, and the next day, inhibitors and controls diluted in cell media were added to the cells to a final volume of 200 μL per well. Cell death was measured using PI (Sigma-Aldrich). Cells were imaged with four images per well every 2 h for up to 96 h using the IncuCyte live-cell analysis system (S3, Sartorius). Cell proliferation data were analysed using Microsoft Excel by normalising confluence to control conditions. For cell killing readouts, the number of PI-positive cells was normalised to the control conditions for each timepoint.

Data set [3] relates to 57 human cancer cell lines. The data set can be described thus: NCI-60 cancer cell panel. Type of data set: cell-based. As to conditions: 72 h, 3 days, in five cell lines across three cancer types, read-out: cell growth inhibition. On the procedure:
as §1

Data set [4] is described as follows: Caco-2 cell permeability assessment. Type of data set: in vitro ADME. The note with it: human, 10 µM donor. The method, then: The apparent permeability coefficient was assessed using Caco-2 cell monolayers as described previously (Katneni et al, [2018]). […] Compound flux was assessed over a period of up to 120 min, with samples taken from the acceptor chamber at multiple time points. Samples from the donor chamber were taken at the beginning and at the end of the experiment. The mass balance at the end of the permeability experiment was calculated according to the following equation, where compound mass was calculated as the product of molar concentration and volume of donor or acceptor solution: Mass balance%=Massfinal donor+Massfinal acceptor/Massinitial donorx100
The apparent permeability coefficient (Papp) was determined based on the rate of compound appearance in acceptor buffer at steady state using the following equation: Papp(cm/s)=dQ/dtx1/cinitial donorx A dQ/dt : apparent steady-state transport rate (µmol/s)
A: surface area of Caco-2 monolayer (0.3 cm^2 in the test system used)
cinitial donor : concentration in the donor at the start of experiment (µmol/cm^3).
Background: Caco-2 cells form a polarised layer with tight junctions and transporters.

A further data set relates to CEP55. The data set can be described thus: CEP55 degradation by Western Blot in MDA-MB-231 cells. Type of data set: cell-based, human. On the procedure:
The next day, cells were lysed in DISC lysis buffer (20 mM TRIS/HCl [pH 7.5], 150 mM NaCl, 2 mM EDTA [pH 8.0], 1% [v/v] Triton X 100, 10% [v/v] glycerol) supplemented with 2% (w/v) SDS and PhosSTOP tablets (Roche). To shred DNA, DISC lysates were run through polypropylene columns (Pierce). […] Next, membranes were washed twice in TBS-T and incubated with primary antibodies at 4 °C o/n. Primary antibodies were diluted in antibody dilution buffer (5% [w/v] BSA [pH 5.2, Sigma-Aldrich] in TBS-T with 0.04% [v/v] sodium azide) as per the manufacturer’s instructions. […] Next, membranes were washed four times for 5 min each in TBS-T. Membranes were developed in ECL (Bio-Rad) and imaged using the ChemiDoc imaging system (Bio-Rad). Images were processed using Image Lab software.
Appendix Fig S4. WEHI-092 phenotypes across cell lines.
(A) IC50 of USP9X inhibitors in MDA-MB-231 cells measured via degradation of the USP9X substrate CEP55 by Western Blot. The compounds were incubated with cells for […]
biological repeats. Error bars, s.e.m. (B) Western Blot analysis of USP9X expression levels across a subset of cell lines used in this study. Representative blot from two independent biological repeats is shown with Actin as a sample loading control. l.p. - low passage; h.p. - high passage. […]
Right, quantification of images plotted as dose-dependent colony area. […]
(In general: In western blotting, separated proteins are transferred to a membrane and probed.)

As to `Cc1[nH]c2ccc(C(=O)N3CCN(S(=O)(=O)c4ccc5c(c4)OCCO5)CC3)cc2c1C` [WEHI-092], the “cell growth, SK-MEL-2” value in the data set on SK-MEL-2 cells was “stalling cell growth completely”. Besides, the “clonogenic potential, UO-31” value in the data set on UO-31 cells [1] is listed as “sensitive”. For the same molecule, the “cell killing of UO-31 cells (IncuCyte)” value with UO-31 cells [2] is reported as “killed”. Also, in data set [3], the inhibition at 10 µM is above 50%. The molecule further came in with an apparent permeability from apical to basolateral (Papp A→B) at 10 µM in data set [4] (Caco-2, apical-to-basolateral) of 42.6 ×10⁻⁶ cm/s. Also, the apparent permeability from basolateral to apical (Papp B→A) at 10 µM in data set [4] (Caco-2, basolateral-to-apical) is 70.4 ×10⁻⁶ cm/s. For the same molecule, the pIC50 with CEP55 (Homo sapiens, MDA-MB-231 cells, 24 h, read-out: apparent IC50 (CEP55 destabilisation, based on Western blotting)) was 5.89. Besides, the CEP55 protein level result in the data set with CEP55 (dose-dependent, Western blot) was “destabilised”.
